Measured values as given in the supplement of paper PMC10307832.

Columns and labels:
Experiment in all cases: relative viability (nuclei count vs DMSO), 5 days (fraction); higher = more cells survive
[1] = compound: C[C@]12O[C@H](C[C@]1(O)CO)n1c3ccccc3c3c4c(c5c6ccccc6n2c5c31)CNC4=O [Lestaurtinib] + O=C(CCCCCCC(=O)Nc1ccccc1)NO [Vorinostat] (partner 1 µM)
Outline: (§1)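 The day after seeding in 1536-well plates, lung cancer cell lines were treated by pin tool with a single drug, or with a fixed anchor-drug dose together with five library-drug doses (not always all listed) in √10 steps. After 5 days, a combined fix-and-stain solution (final 0.05% Triton X-100, 1% formaldehyde, 1 ug/ml Hoechst) was added. Nuclei counted on 4× images gave relative viability as treated counts over vehicle counts, reported as the median of duplicate plates.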

[2] = compound: C1/C(=C\C2=CC=CS2)/C(=O)/C(=C/C3=CC=CS3)/C1 + CCNC(=O)c1noc(-c2cc(C(C)C)c(O)cc2O)c1-c1ccc(CN2CCOCC2)cc1 [Luminespib] (partner 0.01 µM)
Outline: as §1

[3] = compound: C1=CC(=CC=C1C2=CC(=C(S2)NC(=O)N)C(=O)N)F [TPCA-1] + O=C(CCCCCCC(=O)Nc1ccccc1)NO [Vorinostat] (partner 1 µM)
Outline: as §1

[4] = compound: C[C@]12O[C@H](C[C@]1(O)CO)n1c3ccccc3c3c4c(c5c6ccccc6n2c5c31)CNC4=O [Lestaurtinib] + CS(=O)(=O)N1CCN(Cc2cc3nc(-c4cccc5[nH]ncc45)nc(N4CCOCC4)c3s2)CC1 [Pictilisib] (partner 1 µM)
Outline: as §1

Row | Cell Line | relative viability ([1]; first compound 0.005 µM) | relative viability ([1]; first compound 0.01581 µM) | relative viability ([1]; first compound 0.05 µM) | relative viability ([1]; first compound 0.1581 µM) | relative viability ([1]; first compound 0.5 µM) | relative viability ([2]; first compound 0.2 µM) | relative viability ([2]; first compound 0.6325 µM) | relative viability ([2]; first compound 2 µM) | relative viability ([2]; first compound 6.325 µM) | relative viability ([2]; first compound 20 µM) | relative viability ([3]; first compound 0.04 µM) | relative viability ([3]; first compound 0.1265 µM) | relative viability ([3]; first compound 0.4 µM) | relative viability ([3]; first compound 1.265 µM) | relative viability ([3]; first compound 4 µM) | relative viability ([4]; first compound 0.005 µM) | relative viability ([4]; first compound 0.01581 µM) | relative viability ([4]; first compound 0.05 µM) | relative viability ([4]; first compound 0.1581 µM) | relative viability ([4]; first compound 0.5 µM)
1 | 201T | 1.03 | 1.12 | 1.01 | 0.927 | 0.771 | 1.14 | 1.05 | 1.04 | 1.03 | 1.01 | 1.02 | 0.951 | 0.99 | 0.937 | 0.886 | 0.677 | 0.691 | 0.64 | 0.601 | 0.533
2 | A549 |  |  |  |  |  |  |  |  |  |  |  |  |  |  |  | 0.61 | 0.588 | 0.184 | 0.251 | 0.0856
3 | A-427 | 0.778 | 0.995 | 0.766 | 0.447 | 0.208 | 1.01 | 0.905 | 0.939 | 0.876 | 0.977 | 0.891 | 0.806 | 0.927 | 0.912 | 0.227 | 0.769 | 0.668 | 0.461 | 0.239 | 0.101
4 | ABC-1 | 1.02 | 1.2 | 1.03 | 0.887 | 0.329 | 0.33 | 0.853 | 1.04 | 0.428 | 0.521 | 1.4 | 1.14 | 1.38 | 1.29 | 0.926 | 0.676 | 0.747 | 0.4 | 0.596 | 0.226
5 | BEN | 0.631 | 0.704 | 0.59 | 0.477 | 0.309 | 0.477 | 0.403 | 0.476 | 0.344 | 0.253 | 0.56 | 0.543 | 0.624 | 0.634 | 0.441 | 0.641 | 0.693 | 0.452 | 0.481 | 0.281
6 | CAL-12T | 0.793 | 0.881 | 0.622 | 0.484 | 0.241 | 0.374 | 0.316 | 0.404 | 0.444 | 0.364 | 0.763 | 0.523 | 0.762 | 0.733 | 0.568 | 0.392 | 0.716 | 0.388 | 0.413 | 0.292
7 | COR-L23 | 0.618 | 0.433 | 0.294 | 0.212 | 0.115 | 0.583 | 0.692 | 0.577 | 0.721 | 0.544 | 0.502 | 0.424 | 0.484 | 0.292 | 0.153 | 0.688 | 0.723 |  | 0.332 | 0.208
8 | COR-L 105 | 0.949 | 0.676 | 0.678 | 0.445 | 0.402 | 0.97 | 0.502 | 0.808 |  | 0.586 | 1.02 | 0.709 | 0.766 | 0.628 | 0.391 | 0.488 | 0.405 | 0.288 | 0.263 | 0.212
9 | Calu-6 |  |  |  |  |  |  |  |  |  |  |  |  |  |  |  | 0.875 | 0.751 | 0.357 | 0.308 | 0.142
10 | ChaGo-K-1 | 0.767 | 0.807 | 0.614 | 0.465 | 0.356 | 0.62 | 0.652 | 0.45 | 0.295 | 0.22 | 0.781 | 0.694 | 0.796 | 0.665 | 0.295 | 0.726 | 1.15 | 0.663 | 0.421 | 0.356
11 | EBC-1 |  |  |  |  |  |  |  |  |  |  |  |  |  |  |  | 0.427 | 0.402 | 0.35 | 0.452 | 0.21
12 | EKVX | 0.744 | 0.742 | 0.765 | 0.578 | 0.368 | 0.914 | 0.83 | 0.904 | 0.678 | 0.842 | 0.724 | 0.622 | 0.766 | 0.76 | 0.654 | 0.518 | 0.461 | 0.442 | 0.571 | 0.387
13 | EMC-BAC-2 | 0.32 | 0.703 | 0.337 | 0.317 | 0.222 | 1.23 | 1.23 | 1.19 | 1.09 | 1.12 | 0.461 | 0.447 | 0.615 | 0.413 | 0.203 | 0.58 | 0.504 | 0.427 | 0.32 | 0.239
14 | EPLC-272H | 0.394 | 0.463 | 0.496 | 0.276 | 0.0829 | 0.53 | 0.326 | 0.267 | 0.513 | 0.561 | 0.53 | 0.403 | 0.523 | 0.256 | 0.258 | 0.292 | 0.318 | 0.212 | 0.286 | 0.305
15 | H3255 | 0.769 | 0.928 | 0.752 | 0.651 | 0.402 | 1.21 | 0.855 | 0.954 | 0.871 | 0.907 | 0.82 | 0.461 | 0.819 | 0.694 | 0.512 | 0.5 | 0.393 | 0.388 | 0.277 | 0.164
16 | HARA | 0.559 | 0.648 | 0.53 | 0.311 | 0.104 | 0.785 | 0.923 | 1.09 | 0.853 | 0.791 | 0.55 | 0.51 | 0.528 | 0.433 | 0.361 | 0.356 | 0.451 | 0.334 | 0.187 | 0.179
17 | HCC-15 | 0.88 | 0.983 | 0.701 | 0.446 | 0.205 | 0.396 | 0.245 | 0.234 | 0.211 | 0.219 | 0.914 | 0.758 | 0.84 | 0.782 | 0.806 | 0.854 | 0.872 | 0.609 | 0.477 | 0.176
18 | HCC-44 | 1.06 | 1.13 | 1.1 | 1.23 | 0.446 | 1.09 | 1.19 | 1.08 | 0.942 | 0.965 | 1.09 | 1.07 | 0.95 | 1.1 | 0.85 | 0.528 | 0.758 | 0.466 | 0.569 | 0.448
